Assay results from US8022061B2, “N-aryl pyrazole compounds, compositions, and methods for their use” (Amgen Inc., priority 2006, dated 2011).

Each compound was assayed on ob/ob mice (assay: Increase of circulating insulin concentrations in treated ob/ob mice). Details: male ob/ob mice, dose 3 mg/kg p.o., 10 minutes after dosing, relative to control group.
Type: in vivo
Description: The results presented below exemplify that administration of the compounds as provided herein to an art-recognized animal model of human diabetes can lead to increased circulating insulin concentrations in the animal model.
Male ob/ob mice were weighed and bled from tail vein, and blood glucose levels were determined with a glucometer. Animals were placed into control and treatment groups having similar averages of glucose levels and body weights. In the morning of the following day, animals were dosed with vehicle (control group) or test article (5 ml/kg, p.o.). Blood samples were collected just before and 10 minutes after dosing, and the samples were assayed for insulin and glucose concentrations.
Table 1 provides exemplary data showing the increase of circulating insulin concentrations (expressed as ng/ml) in treated mice relative to control group at 10 minutes after dosing the treated mice. Concentrations of the exemplary compound tested in the mice are provided in the righthand column.

With `CCCCc1c(C(=O)NC2CCCn3cncc32)cnn1-c1ncc(C)c(-c2cccs2)n1` (stereo not shown) [5-Butyl-1-[5-methyl-4-(2-thienyl)pyrimidin-2-yl]-N-(5,6,7,8-tetrahydroimidazo[1,5-a]pyridin-8-yl)-1H-pyrazole-4-carboxamide] the “Increase in Insulin” value was 1.4 ng/mL.

Same assay, conditions: male ob/ob mice, dose 10 mg/kg p.o., 10 minutes after dosing, relative to control group

Point of comparison: `CCCCc1c(C(=O)NCc2c(C)ncn2CC(=O)N(C)C)cnn1-c1ncc(C)c(-c2cccs2)n1` [5-Butyl-N-({1-[2-(dimethylamino)-2-oxoethyl]-4-methyl-1H-imidazol-5-yl}methyl)-1-[5-methyl-4-(2-thienyl)pyrimidin-2-yl]-1H-pyrazole-4-carboxamide], “Increase in Insulin” value 4.7 ng/mL. Against it:
- CCCCc1c(C(=O)NCc2cnc3ccccn23)cnn1-c1ncc(Br)c(NC2CCC2)n1 [1-[5-Bromo-4-(cyclobutylamino)pyrimidin-2-yl]-5-butyl-N-(imidazo[1,2-a]pyridin-3-ylmethyl)-1H-pyrazole-4-carboxamide] — 1.5-fold higher, 7.2 ng/mL
- CCCc1c(C(=O)NC2CCCc3cnccc32)cnn1-c1ncc(C)c(-c2cccs2)n1 (stereo not shown) [1-[5-Methyl-4-(2-thienyl)pyrimidin-2-yl]-5-propyl-N-(5,6,7,8-tetrahydroisoquinolin-5-yl)-1H-pyrazole-4-carboxamide] — 1.9-fold higher, 8.8 ng/mL
- CCCCc1c(C(=O)NCCn2cncc2C(=O)O)cnn1-c1ncc(C)c(-c2cccs2)n1 [1-{2-[({5-Butyl-1-[5-methyl-4-(2-thienyl)pyrimidin-2-yl]-1H-pyrazol-4-yl}carbonyl)amino]ethyl}-1H-imidazole-5-carboxylic acid] — within 1.5-fold, 6.1 ng/mL
- CCOCc1c(C(=O)NC(C)c2ccncc2)cnn1-c1ncc(C)c(-c2cccs2)n1 (stereo not shown) [5-(Ethoxymethyl)-1-[5-methyl-4-(2-thienyl)pyrimidin-2-yl]-N-(1-pyridin-4-ylethyl)-1H-pyrazole-4-carboxamide] — within 1.5-fold, 6.7 ng/mL
- CCCCc1c(C(=O)NC(CC)c2ccncc2)cnn1-c1ncc(C)c(-c2cccs2)n1 (stereo not shown) [5-Butyl-1-[5-methyl-4-(2-thienyl)pyrimidin-2-yl]-N-(1-pyridin-4-ylpropyl)-1H-pyrazole-4-carboxamide] — 1.5-fold lower, 3.1 ng/mL
- CCCCc1c(C(=O)Nc2cccc3ncn(C)c23)cnn1-c1ncc(C)c(-c2cccs2)n1 [5-Butyl-N-(1-methyl-1H-benzo[d]imidazol-7-yl)-1-(5-methyl-4-(thiophen-2-yl)pyrimidin-2-yl)-1H-pyrazole-4-carboxamide] — within 1.5-fold, 4.3 ng/mL
- CCCCc1c(C(=O)NC(CO)c2ccncc2)cnn1-c1ncc(C)c(-c2cccs2)n1 (stereo not shown) [5-Butyl-N-(2-hydroxy-1-pyridin-4-ylethyl)-1-[5-methyl-4-(2-thienyl)pyrimidin-2-yl]-1H-pyrazole-4-carboxamide] — within 1.5-fold, 4.3 ng/mL
- CCCCc1c(C(=O)NC2CCn3cncc32)cnn1-c1ncc(C)c(-c2cccs2)n1 (stereo not shown) [5-Butyl-N-(6,7-dihydro-5H-pyrrolo[1,2-c]imidazol-7-yl)-1-[5-methyl-4-(2-thienyl)pyrimidin-2-yl]-1H-pyrazole-4-carboxamide] — 2.1-fold lower, 2.2 ng/mL
- CCCCc1c(C(=O)NCc2cnc3ccccn23)cnn1-c1ncc(C)c(-c2cccs2)n1 [5-Butyl-N-(imidazo[1,2-a]pyridin-3-ylmethyl)-1-[5-methyl-4-(2-thienyl)pyrimidin-2-yl]-1H-pyrazole-4-carboxamide] — 1.8-fold higher, 8.5 ng/mL

Same assay, conditions: male ob/ob mice, dose 30 mg/kg p.o., 10 minutes after dosing, relative to control group

Point of comparison: `CCCCc1c(C(=O)NC(C)(C)c2ccncc2)cnn1-c1ncc(C)c(-c2cccs2)n1` [5-Butyl-N-(1-methyl-1-pyridin-4-ylethyl)-1-[5-methyl-4-(2-thienyl)pyrimidin-2-yl]-1H-pyrazole-4-carboxamide], “Increase in Insulin” value 4.6 ng/mL. Against it:
- CCCCc1c(C(=O)NCc2ccncc2)cnn1-c1ncc(C)c(-c2cccs2)n1 [5-Butyl-1-[5-methyl-4-(2-thienyl)pyrimidin-2-yl]-N-(pyridin-4-ylmethyl)-1H-pyrazole-4-carboxamide] — within 1.5-fold, 4.1 ng/mL
